{"source": "paper PMC6934184", "about": "“Selective DNA-PKcs inhibition extends the therapeutic index of localized radiotherapy and chemotherapy” (The Journal of Clinical Investigation, 2019)", "molecular_target": "T1, LTK (TYK1) (Homo sapiens, UniProt P29376)", "T1 construct": "purchased Thermo Fisher Scientific (Life Technologies) SelectScreen", "T1 sequence (P29376 17-864)": "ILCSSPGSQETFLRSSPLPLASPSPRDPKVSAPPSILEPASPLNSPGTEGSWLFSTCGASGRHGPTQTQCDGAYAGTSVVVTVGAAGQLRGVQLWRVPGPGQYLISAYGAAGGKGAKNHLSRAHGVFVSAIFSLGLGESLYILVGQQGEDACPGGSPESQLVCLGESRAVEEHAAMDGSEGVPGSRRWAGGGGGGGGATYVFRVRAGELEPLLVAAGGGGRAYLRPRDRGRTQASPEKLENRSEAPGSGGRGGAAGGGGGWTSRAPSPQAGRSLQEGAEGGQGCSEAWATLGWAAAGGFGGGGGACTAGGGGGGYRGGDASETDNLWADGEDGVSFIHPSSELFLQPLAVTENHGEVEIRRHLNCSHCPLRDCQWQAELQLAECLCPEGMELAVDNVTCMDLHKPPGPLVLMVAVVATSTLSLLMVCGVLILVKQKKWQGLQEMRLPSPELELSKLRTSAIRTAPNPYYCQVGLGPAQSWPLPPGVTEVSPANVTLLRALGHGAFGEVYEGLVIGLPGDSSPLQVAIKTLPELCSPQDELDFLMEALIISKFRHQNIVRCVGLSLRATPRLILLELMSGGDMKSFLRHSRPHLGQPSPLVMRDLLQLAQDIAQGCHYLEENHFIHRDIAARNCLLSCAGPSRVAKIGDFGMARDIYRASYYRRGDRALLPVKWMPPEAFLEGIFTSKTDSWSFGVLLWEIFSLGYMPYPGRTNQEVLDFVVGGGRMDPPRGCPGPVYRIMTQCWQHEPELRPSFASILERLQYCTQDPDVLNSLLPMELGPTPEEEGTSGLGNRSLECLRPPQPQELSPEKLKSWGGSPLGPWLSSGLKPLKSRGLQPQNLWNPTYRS", "test": "SelectScreen Z'LYTE", "assay_type": "biochemical", "summary_of_the_method": "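Compound tested in SelectScreen activity assays, Z'LYTE for CSF1R, CDK1/cyclin B and MAP2K6 and Adapta for CAMK1. ATP for CAMK1 was listed as 10, and Km app was used for CSF1R. Results are expressed in percent.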"}
{"compound": "CN(C(=O)CN1CCOCC1)c1ccc2sc3c(-c4cccc5c(=O)cc(N6CC7CCC(C6)O7)oc45)cccc3c2c1", "note": "[NU5455]", "values": [{"measurement": "inhibition at 1 µM", "value": -13.1, "unit": "%"}]}
